Results on five molecules are retold here after paper PMC9603770, “Broad-Spectrum Inhibitors against Class A, B, and C Type β-Lactamases to Block the Hydrolysis against Antibiotics: Kinetics and Structural Characterization” (Microbiology Spectrum, 2022).

One test addresses T1, KPC-2 (Klebsiella pneumoniae, UniProt Q9F663).
T1 construct: made in house; host or cells: E. coli (DH5 and BL21(DE3) named; pET-28a)
Briefly: Steady-state kinetics of antibiotic hydrolysis with inhibitor. The format is biochemical. The note with it: inhibitor concentration as per IC50. As to the method: (§1) The enzyme kinetics parameters (Km, and kcat) for all six proteins/enzymes in combination with different antibiotics (cefotaxime, imipenem, and meropenem), were calculated. The concentration of inhibitors, D63, D2148, and D2573, was as per the IC50 value (Fig. 5); the kinetic parameters are listed in Table 8.
(§2) The steady-state kinetics of all six proteins were determined using the antibiotics:imipenem (Δε295 = −11,500 M^−1 cm^−1), meropenem (Δε297 = −10,940 M^−1 cm^−1), and cefotaxime (Δε264 = −27,250 M^−1 cm^−1). In this study, the D63, D2148, and D2573 inhibitors were tested. Hydrolysis of β-lactam antibiotics was detected by monitoring the variation in absorbance due to cleavage of the β-lactam ring in 50 mM, pH 7.0, phosphate buffer ([40], [41]). For hydrolysis of substrate (cefotaxime, imipenem, and meropenem) kinetics parameters, Km and kcat were calculated by using Michaelis Menten equations (equations 2 and 3). (2) V =Vmax [S]/Km + [S] (3) kcat = Vmax/E where E and S are the enzyme and substrate concentration, Km is the Michaelis-Mentent constant, kcat is the turnover number, and V and Vmax are the initial and maximum velocity of the hydrolysis, respectively.

Another test addresses T2, SHV-1 (Klebsiella pneumoniae, UniProt P0AD64).
T2 construct: made in house; host or cells: E. coli (DH5 and BL21(DE3) named; pET-28a)
The description is as above. The note with it: inhibitor concentration as per IC50. The class given is biochemical. As to the method: as §1, §2

A further test deals with T3, NDM-1 (Klebsiella pneumoniae, UniProt C7C422).
T3 construct: made in house; host or cells: E. coli (DH5 and BL21(DE3) named)
Described as above. The format is biochemical. Particulars: inhibitor concentration as per IC50. As to the method:
as §1, §2

For the next test, the target named is T4, Amp-C (Escherichia coli, UniProt P00811).
T4 construct: made in house; host or cells: E. coli (DH5 and BL21(DE3) named; pET-28a)
Described as above. The format is biochemical. Particulars: inhibitor concentration as per IC50. Here is the method: as §1, §2

The next test concerns the target T5, TEM-1 (Escherichia coli, UniProt P62593).
T5 construct: made in house; host or cells: E. coli (DH5 and BL21(DE3) named; pET-28a)
The description is as above. The format is biochemical. Particulars: inhibitor concentration as per IC50. As to the method: as §1, §2

For test [1], the target named is T6, CTX-M-15 (Escherichia coli, UniProt Q9EXV5).
T6 construct: made in house; host or cells: E. coli (DH5 and BL21(DE3) named)
The test is described as above. The format is biochemical. The note with it: inhibitor concentration as per IC50. As to the method:
as §1, §2

In test [2] the target is T6, CTX-M-15. On the set-up: method as in PMID 20921316. The note with it: cited from earlier work.
In test [3] the test system is E. coli DH5α cells with blaSHV-1 clone. Nature of the test: microbe, parasite or virus in culture. The note with it: Escherichia coli. The class given is cell-based. Here is the method:
(§3) The blaSHV-1, blaTEM-1, blaKPC-2, and blaAmp-C genes were cloned in the pET-28a vector individually, followed by its transformation in Escherichia coli DH5α cells. The MIC values was determined for clinical strains (AK-10, AK-12, AK-18, NP-6, AK-67, and AK-66) and E. coli DH5α cells with selected clones (blaSHV-1, blaTEM-1, blaKPC-2, blaAmp-C, blaCTX-M-15, and blaNDM-1) carrying vectors individually.
(§4) In a series of 2-fold dilutions, E. coli cells were given escalating doses of antibiotics from 0 to 512 μg/mL.

Test [4] concerns E. coli DH5α cells with blaAmp-C clone. Nature of the test: microbe, parasite or virus in culture. The format is cell-based. The note with it: Escherichia coli. Here is the method:
as §3, §4

The test system of test [5] is E. coli DH5α cells with blaNDM-1 clone. Nature of the test: microbe, parasite or virus in culture. The class given is cell-based. Particulars: Escherichia coli. Here is the method:
as §3, §4

Test [6] concerns E. coli DH5α cells with blaCTX-M-15 clone. Briefly: microbe, parasite or virus in culture. The format is cell-based. Particulars: Escherichia coli. Here is the method: as §3, §4
Test [7] relates to E. coli DH5α cells with blaTEM-1 clone. Nature of the test: microbe, parasite or virus in culture. The class given is cell-based. The note with it: Escherichia coli. As to the method: as §3, §4
For test [8], the system named is E. coli DH5α cells with blaKPC-2 clone. Nature of the test: microbe, parasite or virus in culture. Particulars: Escherichia coli. The format is cell-based. As to the method:
as §3, §4

In the next test the test system is clinical strain NP-6. Nature of the test: MIC, microdilution. The class given is cell-based. Here is the method:
as §3, §4

In another test the test system is clinical strain AK-66. Briefly: MIC, microdilution. The class given is cell-based. As to the method: as §3, §4
For orientation: Broth dilution looks for growth in wells or tubes with falling amounts of substance.

A further test deals with clinical strain AK-10. Briefly: MIC, microdilution. The class given is cell-based. As to the method: as §3, §4
For a further test, the system named is clinical strain AK-18. Nature of the test: MIC, microdilution. The format is cell-based. As to the method:
as §3, §4

Another test relates to clinical strain AK-67. Briefly: MIC, microdilution. The format is cell-based. As to the method:
as §3, §4

The mark [9] stands for this setting: clinical strain AK-66, read-out: MIC.

Converted amounts (≈) assume the structure as drawn. Like-named read-outs stand apart in the source and are kept apart here.

T4 sequence (P00811 20-377): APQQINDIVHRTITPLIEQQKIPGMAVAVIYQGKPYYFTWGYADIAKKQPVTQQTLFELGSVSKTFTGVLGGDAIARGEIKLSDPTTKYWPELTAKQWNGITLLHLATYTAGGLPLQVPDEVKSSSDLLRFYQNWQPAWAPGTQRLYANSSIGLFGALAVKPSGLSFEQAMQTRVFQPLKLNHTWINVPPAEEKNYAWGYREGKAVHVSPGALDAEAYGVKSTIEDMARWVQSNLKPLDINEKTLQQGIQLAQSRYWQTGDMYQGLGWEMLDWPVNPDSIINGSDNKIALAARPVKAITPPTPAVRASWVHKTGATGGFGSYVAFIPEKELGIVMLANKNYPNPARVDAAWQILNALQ
T1 sequence (Q9F663 25-293, looked up, species assumed): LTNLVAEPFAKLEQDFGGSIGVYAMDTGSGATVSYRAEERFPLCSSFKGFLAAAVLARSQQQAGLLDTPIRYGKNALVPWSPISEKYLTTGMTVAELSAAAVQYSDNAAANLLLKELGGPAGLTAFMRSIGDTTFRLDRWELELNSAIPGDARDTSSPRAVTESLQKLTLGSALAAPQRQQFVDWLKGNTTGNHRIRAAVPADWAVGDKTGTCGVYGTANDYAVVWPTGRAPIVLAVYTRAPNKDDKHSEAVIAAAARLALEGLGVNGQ
T5 sequence (P62593 24-286 limits assumed): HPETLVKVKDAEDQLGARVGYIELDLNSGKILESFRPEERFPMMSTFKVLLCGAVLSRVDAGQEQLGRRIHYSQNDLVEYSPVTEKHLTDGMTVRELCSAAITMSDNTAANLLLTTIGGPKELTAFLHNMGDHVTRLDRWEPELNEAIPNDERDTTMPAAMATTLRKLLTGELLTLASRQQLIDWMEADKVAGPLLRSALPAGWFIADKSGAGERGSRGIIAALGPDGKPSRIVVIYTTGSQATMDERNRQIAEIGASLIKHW
T2 sequence (P0AD64 22-286): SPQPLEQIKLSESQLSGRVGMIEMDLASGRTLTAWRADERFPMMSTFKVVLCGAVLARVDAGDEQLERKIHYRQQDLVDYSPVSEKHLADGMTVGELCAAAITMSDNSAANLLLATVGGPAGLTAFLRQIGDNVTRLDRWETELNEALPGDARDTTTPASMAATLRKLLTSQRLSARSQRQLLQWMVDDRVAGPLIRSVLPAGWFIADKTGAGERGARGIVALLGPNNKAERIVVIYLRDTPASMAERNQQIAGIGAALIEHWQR
T6 sequence (Q9EXV5 29-291, species assumed): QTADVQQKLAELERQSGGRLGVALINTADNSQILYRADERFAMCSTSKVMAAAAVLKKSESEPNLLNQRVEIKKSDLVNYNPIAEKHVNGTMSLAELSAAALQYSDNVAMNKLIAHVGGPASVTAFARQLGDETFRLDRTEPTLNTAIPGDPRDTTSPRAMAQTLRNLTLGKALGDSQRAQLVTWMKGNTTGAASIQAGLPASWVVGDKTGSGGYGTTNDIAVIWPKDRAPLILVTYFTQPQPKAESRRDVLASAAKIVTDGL
T3 sequence (C7C422 29-270, looked up, species assumed): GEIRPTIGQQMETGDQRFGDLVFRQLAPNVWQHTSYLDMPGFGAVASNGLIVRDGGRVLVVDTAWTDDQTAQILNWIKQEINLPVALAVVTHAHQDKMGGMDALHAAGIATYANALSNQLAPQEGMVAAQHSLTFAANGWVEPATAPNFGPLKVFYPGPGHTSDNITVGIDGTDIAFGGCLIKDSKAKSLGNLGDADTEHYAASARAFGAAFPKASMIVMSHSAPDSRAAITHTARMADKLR

For orientation: IC50 means the concentration that gives 50% inhibition. Consider `NC(=O)[C@@H]1CC[C@@H]2CN1C(=O)N2OS(=O)(=O)O` [Avibactam, reference compound], for which the “Km or Ki” value is 1299 μΜ on KPC-2 (cefotaxime); 2,637 μΜ on KPC-2 (imipenem); 1,740 μΜ on KPC-2 (meropenem); 1,201 μΜ on SHV-1 (cefotaxime); 835.4 μΜ at SHV-1 (imipenem); 532 μΜ on SHV-1 (meropenem). For the same molecule, the “Km or Ki” value at NDM-1 (cefotaxime) is 212.2 μΜ; on NDM-1 (imipenem) it was 615.5 μΜ; on NDM-1 (meropenem) it was 440.9 μΜ; at Amp-C (cefotaxime) it was 1,199 μΜ; on Amp-C (imipenem), 321 μΜ; on Amp-C (meropenem), 1,442 μΜ. Besides, the “Km or Ki” value was 1,558 μΜ on TEM-1 (cefotaxime); 2,918 μΜ on TEM-1 (imipenem); 12,315 μΜ at TEM-1 (meropenem); 2047 μΜ at CTX-M-15 [1] (cefotaxime); 2,918 μΜ on CTX-M-15 [1] (imipenem); 745.5 μΜ on CTX-M-15 [1] (meropenem). The kcat on KPC-2 (cefotaxime) turned out to be 0.549 S^−1; on KPC-2 (imipenem), 1.499 S^−1; on KPC-2 (meropenem) it was 0.72 S^−1; at SHV-1 (cefotaxime), 0.6119 S^−1; at SHV-1 (imipenem), 0.5531 S^−1; at SHV-1 (meropenem) it was 0.4803 S^−1. Besides, the kcat is given as 1.036 S^−1 on NDM-1 (cefotaxime); 2.194 S^−1 at NDM-1 (imipenem); 1.268 S^−1 at NDM-1 (meropenem); 1.417 S^−1 at Amp-C (cefotaxime); 0.861 S^−1 at Amp-C (imipenem); 2.213 S^−1 at Amp-C (meropenem). The kcat stood at 1.339 S^−1 on TEM-1 (cefotaxime); 1.107 S^−1 at TEM-1 (imipenem); 5.916 S^−1 at TEM-1 (meropenem); 1.858 S^−1 on CTX-M-15 [1] (cefotaxime); 0.4807 S^−1 at CTX-M-15 [1] (imipenem); 1.566 S^−1 at CTX-M-15 [1] (meropenem). In addition, the IC50 at CTX-M-15 [2] is 5 nM.
`C[C@@H](O)[C@H]1C(=O)N2C(C(=O)O)=C(SCCN=CN)C[C@H]12` [Imipenem]: the MIC in test [3] was found to be 16 µg/mL (≈ 53.4 µM); in test [4] it was 16 µg/mL (≈ 53.4 µM); in test [5], 512 µg/mL (≈ 1710 µM); in test [6] it was 32 µg/mL (≈ 107 µM); in [7] it was 16 µg/mL (≈ 53.4 µM); in test [8], 16 µg/mL (≈ 53.4 µM). The results for the MIC in the test with clinical strain NP-6, with clinical strain AK-66 (setting [9]) and with clinical strain AK-10 were 64 µg/mL (≈ 214 µM), 1020 µg/mL (≈ 3420 µM) and 128 µg/mL (≈ 428 µM), respectively.
Consider `CO[C@@]1(NC(=O)Cc2cccs2)C(=O)N2C(C(=O)O)=C(COC(N)=O)CS[C@@H]21` [Cefoxitin], for which the MIC in test [3], in test [4], in [5], in [6], in test [7] and in test [8] was 32 µg/mL (≈ 74.9 µM) in each case. Besides, the MIC in the test with clinical strain NP-6 and in the test with clinical strain AK-66 (setting [9]) was 64 µg/mL (≈ 150 µM) throughout.
Regarding `CO/N=C(\C(=O)N[C@@H]1C(=O)N2C(C(=O)O)=C(COC(C)=O)CS[C@H]12)c1csc(N)n1` [Cefotaxime], the MIC in [3] amounted to 4 µg/mL (≈ 8.78 µM); in test [4], 2 µg/mL (≈ 4.39 µM); in test [5] it was 256 µg/mL (≈ 562 µM); in test [6], 512 µg/mL (≈ 1120 µM); in test [7], 2 µg/mL (≈ 4.39 µM); in test [8] it was 2 µg/mL (≈ 4.39 µM). For the same molecule, the MIC worked out at 32 µg/mL (≈ 70.3 µM) against clinical strain AK-18; 16 µg/mL (≈ 35.1 µM) with clinical strain NP-6; 512 µg/mL (≈ 1120 µM) against clinical strain AK-66; 512 µg/mL (≈ 1120 µM) against clinical strain AK-67; 1020 µg/mL (≈ 2250 µM) against clinical strain AK-10.
With `C[C@@H](O)[C@H]1C(=O)N2C(C(=O)O)=C(S[C@@H]3CN[C@H](C(=O)N(C)C)C3)[C@H](C)[C@H]12` [Meropenem], the MIC in test [3] was 2 µg/mL (≈ 5.22 µM); in test [4], 4 µg/mL (≈ 10.4 µM); in test [5], 1020 µg/mL (≈ 2670 µM); in [6], 2 µg/mL (≈ 5.22 µM); in [7], 2 µg/mL (≈ 5.22 µM); in [8], 2 µg/mL (≈ 5.22 µM). Also, the MIC with clinical strain AK-18 is 32 µg/mL (≈ 83.4 µM); in the test with clinical strain NP-6, 16 µg/mL (≈ 41.7 µM); with clinical strain AK-66 (setting [9]), 1020 µg/mL (≈ 2670 µM); against clinical strain AK-10 it was 32 µg/mL (≈ 83.4 µM).
